Results from US12589156B2, “Benzimidazole and benzimidazolone based protac compounds for the targeted degradation of leucine rich repeat kinase 2 (LRRK2)” (Arvinas Operations, Inc., priority 2023, dated 2026).

Target: T1, WT LRRK2 (Homo sapiens, UniProt Q5S007)
T1 construct: endogenous in cells; host or cells: HEK293 (endogenous LRRK2 gene knock-in tagged with HiBit; stably expressing CMV-driven firefly luciferase)
Assay: LRRK2 HiBit degradation assay (Nano-Glo Dual Luciferase) in HEK293 cells with HiBit-tagged endogenous LRRK2
Type: cell-based
Settings: for Dmax / WT LRRK2 **Dmax (%): maximal degradation
Outline: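 HEK293 cells carrying endogenous C-terminally HiBit-tagged LRRK2 and stably expressing CMV-driven firefly luciferase were treated for 24 h at 37° C with an 11-point 1:3 series from a 1 μM final top concentration. Nano-Glo Dual Luciferase read LRRK2-HiBit against firefly signal. Alamar Blue gave viability, and signals were normalized to DMSO median before curve fitting.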

[1] = Table 2, HiBit-tagged LRRK2 in HEK293 cells, 24 hours treatment, starting concentration 1 μM
[2] = HEK293, Table 2, HiBit-tagged LRRK2 in HEK293 cells, 24 hours treatment
[3] = Table 2, HiBit-tagged LRRK2 in HEK293 cells, 24 hours treatment
[4] = HEK293, Table 3, comparison with direct comparators
[5] = Table 3, comparison with direct comparators, HiBit-tagged LRRK2 in HEK293 cells, 24 hours treatment

T1 sequence (Q5S007 whole entry): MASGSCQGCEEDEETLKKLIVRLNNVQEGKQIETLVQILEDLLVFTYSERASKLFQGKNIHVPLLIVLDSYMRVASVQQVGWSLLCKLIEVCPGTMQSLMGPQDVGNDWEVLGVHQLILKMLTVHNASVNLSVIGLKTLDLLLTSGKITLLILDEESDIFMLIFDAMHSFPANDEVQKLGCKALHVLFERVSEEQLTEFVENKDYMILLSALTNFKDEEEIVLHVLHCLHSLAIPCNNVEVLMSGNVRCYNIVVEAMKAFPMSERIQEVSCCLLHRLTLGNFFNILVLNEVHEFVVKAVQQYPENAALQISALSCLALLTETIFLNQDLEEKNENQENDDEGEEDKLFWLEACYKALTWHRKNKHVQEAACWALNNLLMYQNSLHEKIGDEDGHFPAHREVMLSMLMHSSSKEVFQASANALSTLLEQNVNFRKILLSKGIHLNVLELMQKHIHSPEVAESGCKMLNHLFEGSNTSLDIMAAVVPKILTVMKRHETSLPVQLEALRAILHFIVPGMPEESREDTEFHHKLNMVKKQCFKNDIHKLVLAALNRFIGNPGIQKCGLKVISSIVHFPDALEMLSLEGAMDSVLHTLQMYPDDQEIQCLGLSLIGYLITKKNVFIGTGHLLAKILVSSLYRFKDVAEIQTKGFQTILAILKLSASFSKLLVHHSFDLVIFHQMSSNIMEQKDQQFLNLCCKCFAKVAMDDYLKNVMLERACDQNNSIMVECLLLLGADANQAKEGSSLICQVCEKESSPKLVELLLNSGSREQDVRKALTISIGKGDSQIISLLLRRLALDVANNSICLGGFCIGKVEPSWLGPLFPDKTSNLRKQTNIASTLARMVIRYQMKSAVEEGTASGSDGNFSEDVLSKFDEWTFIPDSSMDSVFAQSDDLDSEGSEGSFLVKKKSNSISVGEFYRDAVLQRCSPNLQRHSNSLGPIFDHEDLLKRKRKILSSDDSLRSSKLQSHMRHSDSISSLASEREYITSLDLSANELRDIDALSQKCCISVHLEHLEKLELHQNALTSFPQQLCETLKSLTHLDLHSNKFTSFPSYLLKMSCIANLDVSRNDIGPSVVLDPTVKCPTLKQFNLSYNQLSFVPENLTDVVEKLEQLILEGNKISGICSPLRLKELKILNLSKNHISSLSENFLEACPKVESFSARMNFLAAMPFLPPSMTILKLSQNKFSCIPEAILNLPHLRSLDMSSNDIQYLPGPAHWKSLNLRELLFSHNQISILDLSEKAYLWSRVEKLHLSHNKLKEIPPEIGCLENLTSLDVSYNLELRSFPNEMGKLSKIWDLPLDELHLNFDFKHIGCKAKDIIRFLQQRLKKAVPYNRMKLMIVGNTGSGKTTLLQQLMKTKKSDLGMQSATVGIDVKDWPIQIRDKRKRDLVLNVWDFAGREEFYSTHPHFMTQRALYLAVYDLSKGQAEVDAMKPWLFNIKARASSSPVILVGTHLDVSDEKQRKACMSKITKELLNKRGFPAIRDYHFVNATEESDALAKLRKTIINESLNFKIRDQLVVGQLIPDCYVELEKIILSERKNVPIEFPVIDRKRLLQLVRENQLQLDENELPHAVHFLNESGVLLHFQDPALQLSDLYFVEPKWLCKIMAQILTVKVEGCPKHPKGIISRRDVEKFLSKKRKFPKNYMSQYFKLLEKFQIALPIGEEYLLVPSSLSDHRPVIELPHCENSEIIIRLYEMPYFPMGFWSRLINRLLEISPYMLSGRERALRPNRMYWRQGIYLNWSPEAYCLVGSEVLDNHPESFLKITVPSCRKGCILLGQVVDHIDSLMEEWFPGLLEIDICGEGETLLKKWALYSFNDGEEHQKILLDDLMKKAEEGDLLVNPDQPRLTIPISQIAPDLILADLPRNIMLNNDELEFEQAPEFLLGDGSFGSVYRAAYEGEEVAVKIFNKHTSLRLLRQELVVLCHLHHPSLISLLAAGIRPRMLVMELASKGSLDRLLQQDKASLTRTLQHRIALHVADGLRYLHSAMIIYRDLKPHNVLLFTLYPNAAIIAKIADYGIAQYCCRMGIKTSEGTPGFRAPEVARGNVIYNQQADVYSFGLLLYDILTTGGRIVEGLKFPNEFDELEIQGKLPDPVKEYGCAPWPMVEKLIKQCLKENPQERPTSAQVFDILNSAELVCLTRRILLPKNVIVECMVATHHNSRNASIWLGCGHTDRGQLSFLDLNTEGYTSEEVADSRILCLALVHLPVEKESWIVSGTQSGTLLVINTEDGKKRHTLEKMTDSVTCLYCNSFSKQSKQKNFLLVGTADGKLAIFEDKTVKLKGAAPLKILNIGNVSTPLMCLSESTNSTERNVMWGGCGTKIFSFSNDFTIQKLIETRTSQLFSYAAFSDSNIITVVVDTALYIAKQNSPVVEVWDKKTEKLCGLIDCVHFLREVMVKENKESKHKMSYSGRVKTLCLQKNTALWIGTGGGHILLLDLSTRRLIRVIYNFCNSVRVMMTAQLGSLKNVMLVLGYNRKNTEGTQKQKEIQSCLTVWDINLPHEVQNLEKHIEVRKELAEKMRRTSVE

DC50 [1] [nM]	Dmax [2] [%]	Dmax [4] [%]	DC50 [5] [nM]	Structure (SMILES)	WT LRRK2 **Dmax (%) [3] [%]
≥ 1000	–	–	–	Cn1c(=O)n(C2CCC(=O)NC2=O)c2cc(N3CCC(CN4CCN(CC5CCN(c6cc(-c7n[nH]c8ccc(OC9(C)CC9)cc78)ncn6)CC5)C(C)(C)C4)CC3)ccc21 (centres unmarked) [Compound 17, 3-{6-[4-({3,3-dimethyl-4-[(1-{6-[5-(1-methylcyclopropoxy)-1H-indazol-3-yl]pyrimidin-4-yl}piperidin-4-yl)methyl]piperazin-1-yl}methyl)piperidin-1-yl]-3-methyl-2-oxo-2,3-dihydro-1H-1,3-benzodiazol-1-yl}piperidine-2,6-dione]	–
3.9	74	–	–	Cn1c(=O)n(C2CCC(=O)NC2=O)c2cccc(C#CCOC3CCN(CC4CCN(c5cc(-c6n[nH]c7ccc(OC8(C)CC8)cc67)ncn5)CC4)CC3)c21 (centres unmarked) [Compound 18, 3-{3-methyl-4-[3-({1-[(1-{6-[5-(1-methylcyclopropoxy)-1H-indazol-3-yl]pyrimidin-4-yl}piperidin-4-yl)methyl]piperidin-4-yl}oxy)prop-1-yn-1-yl]-2-oxo-2,3-dihydro-1H-1,3-benzodiazol-1-yl}piperidine-2,6-dione]	–
17	–	–	–	CC(C)Oc1cc2c(-c3cc(N4CCC(OC5CCC(OC6CCN(c7ccc8c(c7)n(C)c(=O)n8C7CCC(=O)NC7=O)CC6)CC5)CC4)ncn3)n[nH]c2cn1 (centres unmarked) [Compound 28]	60
1.2	53	53	1.2	Cc1nc2cc(N3CCC(CN4CCN(CC5CCN(c6cc(-c7n[nH]c8ccc(OC9(C)CC9)cc78)ncn6)CC5)C(C)(C)C4)CC3)ccc2n1C1CCC(=O)NC1=O (centres unmarked) [Compound 38, 3-{5-[4-({3,3-dimethyl-4-[(1-{6-[5-(1-methylcyclopropoxy)-1H-indazol-3-yl]pyrimidin-4-yl}piperidin-4-yl)methyl]piperazin-1-yl}methyl)piperidin-1-yl]-2-methyl-1H-1,3-benzodiazol-1-yl}piperidine-2,6-dione]	–
4.9	56	56	4.9	CC1(Oc2ccc3[nH]nc(-c4cc(N5CCC(CN6CCN(CC7CCN(c8cc(F)c9c(c8)ncn9C8CCC(=O)NC8=O)CC7)CC6(C)C)CC5)ncn4)c3c2)CC1 (centres unmarked) [Compound 39, 3-{5-[4-({3,3-dimethyl-4-[(1-{6-[5-(1-methylcyclopropoxy)-1H-indazol-3-yl]pyrimidin-4-yl}piperidin-4-yl)methyl]piperazin-1-yl}methyl)piperidin-1-yl]-7-fluoro-1H-1,3-benzodiazol-1-yl}piperidine-2,6-dione]	–
4.2	59	59	4.2	CC1(Oc2ccc3[nH]nc(-c4cc(N5CCC(CN6CCN(CC7CCN(c8cc9ncn(C%10CCC(=O)NC%10=O)c9cc8F)CC7)CC6(C)C)CC5)ncn4)c3c2)CC1 (centres unmarked) [Compound 40, 3-{5-[4-({3,3-dimethyl-4-[(1-{6-[5-(1-methylcyclopropoxy)-1H-indazol-3-yl]pyrimidin-4-yl}piperidin-4-yl)methyl]piperazin-1-yl}methyl)piperidin-1-yl]-6-fluoro-1H-1,3-benzodiazol-1-yl}piperidine-2,6-dione]	–
3.7	49	49	3.7	CC1(Oc2ccc3[nH]nc(-c4cc(N5CCC(CN6CCN(CC7CCN(c8ccc9c(ncn9C9CCC(=O)NC9=O)c8F)CC7)CC6(C)C)CC5)ncn4)c3c2)CC1 (centres unmarked) [Compound 41, 3-{5-[4-({3,3-dimethyl-4-[(1-{6-[5-(1-methylcyclopropoxy)-1H-indazol-3-yl]pyrimidin-4-yl}piperidin-4-yl)methyl]piperazin-1-yl}methyl)piperidin-1-yl]-4-fluoro-1H-1,3-benzodiazol-1-yl}piperidine-2,6-dione]	–
5.2	42	52	5.2	Cc1nc2cc(N3CCC(O[C@H]4CC[C@H](CN5CCN(c6cc(-c7n[nH]c8ccc(OC9(C)CC9)cc78)ncn6)CC5)CC4)CC3)ccc2n1C1CCC(=O)NC1=O (stereo partly drawn) [Compound 42, rel-3-[2-methyl-5-(4-{[(1r,4r)-4-[(4-{6-[5-(1-methylcyclopropoxy)-1H-indazol-3-yl]pyrimidin-4-yl}piperazin-1-yl)methyl]cyclohexyl]oxy}piperidin-1-yl)-1H-1,3-benzodiazol-1-yl]piperidine-2,6-dione]	–
6.2	49	49	6.2	CC1(Oc2ccc3[nH]nc(-c4cc(N5CCN(C[C@H]6CC[C@H](OC7CCN(c8cc(F)c9c(c8)ncn9C8CCC(=O)NC8=O)CC7)CC6)CC5)ncn4)c3c2)CC1 (stereo partly drawn) [Compound 43, rel-3-[7-fluoro-5-(4-{[(1r,4r)-4-[(4-{6-[5-(1-methylcyclopropoxy)-1H-indazol-3-yl]pyrimidin-4-yl}piperazin-1-yl)methyl]cyclohexyl]oxy}piperidin-1-yl)-1H-1,3-benzodiazol-1-yl]piperidine-2,6-dione]	–
6.3	50	50	6.3	CC1(Oc2ccc3[nH]nc(-c4cc(N5CCN(C[C@H]6CC[C@H](OC7CCN(c8cc9ncn(C%10CCC(=O)NC%10=O)c9cc8F)CC7)CC6)CC5)ncn4)c3c2)CC1 (stereo partly drawn) [Compound 44, rel-3-[6-fluoro-5-(4-{[(1r,4r)-4-[(4-{6-[5-(1-methylcyclopropoxy)-1H-indazol-3-yl]pyrimidin-4-yl}piperazin-1-yl)methyl]cyclohexyl]oxy}piperidin-1-yl)-1H-1,3-benzodiazol-1-yl]piperidine-2,6-dione]	–
3.9	56	56	3.9	CC1(Oc2ccc3[nH]nc(-c4cc(N5CCN(C[C@H]6CC[C@H](OC7CCN(c8ccc9c(ncn9C9CCC(=O)NC9=O)c8F)CC7)CC6)CC5)ncn4)c3c2)CC1 (stereo partly drawn) [Compound 45, rel-3-[4-fluoro-5-(4-{[(1r,4r)-4-[(4-{6-[5-(1-methylcyclopropoxy)-1H-indazol-3-yl]pyrimidin-4-yl}piperazin-1-yl)methyl]cyclohexyl]oxy}piperidin-1-yl)-1H-1,3-benzodiazol-1-yl]piperidine-2,6-dione]	–

Structure (SMILES)	DC50 [1] [nM]	Dmax [2] [%]	Dmax [4] [%]	DC50 [5] [nM]	WT LRRK2 **Dmax (%) [3] [%]
Cn1c(=O)n(C2CCC(=O)NC2=O)c2ccc(N3CCC(OC4CCC(OC5CCN(c6cc(-c7n[nH]c8cnc(OC9(C)CC9)cc78)ncn6)CC5)CC4)CC3)cc21 (stereo not drawn) [Compound 25, rel-3-[3-methyl-2-oxo-5-(4-{[(1r,4r)-4-[(1-{6-[5-(1-methylcyclopropoxy)-1H-pyrazolo[3,4-c]pyridin-3-yl]pyrimidin-4-yl}piperidin-4-yl)oxy]cyclohexyl]oxy}piperidin-1-yl)-2,3-dihydro-1H-1,3-benzodiazol-1-yl]piperidine-2,6-dione]	0.32	–	–	–	48
CC(C)n1c(=O)n(C2CCC(=O)NC2=O)c2ccc(N3CCC(OC4CCC(OC5CCN(c6cc(-c7n[nH]c8cnc(OC9(C)CC9)cc78)ncn6)CC5)CC4)CC3)cc21 (stereo not drawn) [Compound 26, rel-3-[2-oxo-3-(propan-2-yl)-5-(4-{[(1r,4r)-4-[(1-{6-[5-(1-methylcyclopropoxy)-1H-pyrazolo[3,4-c]pyridin-3-yl]pyrimidin-4-yl}piperidin-4-yl)oxy]cyclohexyl]oxy}piperidin-1-yl)-2,3-dihydro-1H-1,3-benzodiazol-1-yl]piperidine-2,6-dione]	1.1	–	–	–	69
